≈ marks a conversion by molar mass, not a printed value. Where two headings read alike, the source gives them in different places. Blank lines part the entries; values can stand above or below the compound they belong to.
What was measured:
[1] = test system: coagulase-negative staphylococci; test: Biofilm formation inhibition, quantification of total biomass by violet crystal staining; type: cell-based; settings: for IC50: read-out: calculated concentration that inhibits the biofilm formation by 50%
Protocol: The biofilm forming ability of coagulase-negative staphylococci, when exposed to compounds 1, 2, 9 and 16, was assessed by quantification of total biomass by violet crystal staining.

[2] = test system: Staphylococcus aureus S54F9; test: Broth microdilution antibiotic susceptibility test; type: cell-based
Protocol: The methanolic extract was submitted to solid phase extraction (Waters Sep-Pak® Vac 35 cc 10 g C18 Cartridges) using mixtures of water/methanol (4:1 to 1:4; 4 to 8 column volumes each), yielding an enriched fraction free of chlorophylls and other pigments. The fraction was then chromatographed using semi-preparative HPLC conditions with a gradient of water/acetonitrile 19:1 to 0:1 (both with 0.1% of formic acid) as mobile phase. Fractions were collected every 30 s (total run time of 70 min) and 140 fractions were collected into 96-well deep well plates, and a 25% of a 67 mg 140-well fractionation was tested against Staphylococcus aureus S54F9. In order to carry out this broth microdilution antibiotic susceptibility test, 50 μL of each HPLC fraction resuspended in 14% MeOH in water were mixed with 50 μL of the S. aureus suspension at 10^6 CFU/mL in 2×MHB in a microtiter plate (final desired inoculum=5·10^5 CFU/mL, final concentration of MeOH in bioassay plate=7%, final volume per well=100 μL). The microtiter plate was replicated onto a selective/differential solid medium (Manitol Salt Agar) in order to distinguish between bacteriostatic and bactericidal activities. Growth controls (broth with bacterial inoculum, no bioactive molecule) as well as sterility (broth only) and solvent controls (broth with 7% MeOH in water) were included.

[3] = coagulase-negative staphylococci biofilm
[4] = S54F9, calculated from the antibiotic activities of the fractions in FIG. 1, range across compounds 1, 2, 9 and 16, read-out: predicted minimal inhibitory concentrations (MICs) against S. aureus

IC50 [1, 3]: 55.1 µg/mL (≈ 180 µM)
MIC [2, 4]: 1790 to 5790 µg/mL (≈ 5830 to 18900 µM)
SMILES: C[C@H](OC(=O)CCCCCCCCCCCCl)C(=O)O [Compound 1, (S)-2-[(12-chlorododecanoyl)oxy]propanoic acid]
inhibition at 70 µg/mL ([1]; biofilm formation, 70 mg/L): 0%
inhibition at 140 µg/mL ([1]; biofilm formation, 140 mg/L): 74%

SMILES: C[C@H](OC(=O)CCCCC(Cl)CCCCCC(Cl)Cl)C(=O)O (stereo partly drawn) [Compound 16, (S)-2-[(6,12,12-trichlorododecanoyl)oxy]propanoic acid]
inhibition at 37.5 µg/mL [1]: 0%
inhibition at 75 µg/mL [1]: 68%
inhibition at 150 µg/mL [1]: 71%
IC50 [1]: 43.4 µg/mL (≈ 116 µM)
MIC ([2]; S54F9, read-out: predicted minimal inhibitory concentrations (MICs) against S. aureus): 1790 to 5790 µg/mL (≈ 4760 to 15400 µM)

IC50 [1, 3]: 94.6 µg/mL (≈ 308 µM)
MIC [2, 4]: 1790 to 5790 µg/mL (≈ 5830 to 18900 µM)
SMILES: CCCCCCC(Cl)CCCCC(=O)O[C@@H](C)C(=O)O (stereo partly drawn) [Compound 2, (S)-2-[(6-chlorododecanoyl)oxy]propanoic acid]
inhibition at 16 µg/mL ([1]; biofilm formation, 16 mg/L): 0%
inhibition at 32.12 µg/mL ([1]; biofilm formation, 32.12 mg/L): 31%
inhibition at 64.25 µg/mL ([1]; biofilm formation, 64.25 mg/L): 74%
inhibition at 128.5 µg/mL ([1]; biofilm formation, 128.5 mg/L): 89%
inhibition at 257 µg/mL ([1]; biofilm formation, 257 mg/L): 90%

IC50 [1, 3]: 20.1 µg/mL (≈ 58.9 µM)
MIC [2, 4]: 1790 to 5790 µg/mL (≈ 5250 to 17000 µM)
SMILES: C[C@H](OC(=O)CCCCC(Cl)CCCCCCCl)C(=O)O (stereo partly drawn) [Compound 9, (S)-2-[(6,12-dichlorododecanoyl)oxy]propanoic acid]
inhibition at 5.65 µg/mL ([1]; biofilm formation, 5.65 mg/L): 0%
inhibition at 11.25 µg/mL ([1]; biofilm formation, 11.25 mg/L): 22%
inhibition at 22.5 µg/mL ([1]; biofilm formation, 22.5 mg/L): 56%
inhibition at 35 µg/mL ([1]; biofilm formation, 35 mg/L): 62%
inhibition at 90 µg/mL ([1]; biofilm formation, 90 mg/L): 66%
inhibition at 180 µg/mL ([1]; biofilm formation, 180 mg/L): 76%
inhibition at 360 µg/mL ([1]; biofilm formation, 360 mg/L): 87%
inhibition at 721 µg/mL ([1]; biofilm formation, 721 mg/L): 88%
